“Also recorded” adds a separate entry of the source.
What was measured:
[1] = reported, Akashi et al. 2003; read-out: binding affinity (Kd) for LPS; cited from earlier work
[2] = system: LPS signal transduction in differentiated THP-1 cells; experiment: TNF-α secretion of LPS-treated, PMA-differentiated THP-1 cells by ELISA; type: cell-based, human; conditions: differentiated THP-1, 20 ng/ml LPS, 6 hours
Description: First, THP-1 monocyte (TIB-202TM, ATCC) was cultured in RPMI containing 10% FBS (Fetal Bovine Serum) and 50 µM 2-mercaptoethanol at 37° C. and 5% CO2. When cell density reached 90%, they were washed with a DPBS buffer solution (pH 7.4). Then, to increase the sensitivity to LPS, the cells were suspended in a medium supplemented with 200 nM PMA (phorbol 12-myristate-13-acetate), and aliquoted to a 96-well plate in a density of 2.5×10^4/well, followed by incubation for 72 hours at 37° C. and 5% CO2 for differentiation.
Prior to the experiment, 10 μg/ml of InlB-VLR and MD-2-added RPMI medium, and 10 μg/ml of MD-2 and 10 μg/ml of IVLR-added medium, 10 μg/ml of TV3-added medium, and 10 μg/ml of TV-3 and MD-2-added medium as control groups were prepared and left at 37° C. for 1 hour. Then, THP-1 differentiated into macrophage by PMA was washed with DPBS buffer solution (pH 7.4) three times, and the sample-containing RPMI media were treated with 20 ng/ml of LPS and THP-1, followed by incubation at 37° C. and 5% CO2 for 6 hours. After 6 hours, a predetermined amount of culture was taken from each well, and diluted 4-8 fold using DPBS buffer solution (pH 7.4), followed by ELISA (Enzyme-Linked Immunosorbent Assays) for the secreted TNF-α.
Monocyte THP-1 (TIB-202TM, ATCC) was cultured in RPMI media supplemented with 10% Fetal Bovine Serum (FBS) and 50 µM of 2-mercaptoethanol at 37° C. and 5% CO2. When the cells reached 90% confluence, they were washed with PBS buffer solution (pH 7.4). In order to increase LPS sensitivity, the cells were suspended in RPMI media containing 200 nM of PMA (phorbol 12-myristate-13-acetate), and plated in a 96-well plate at a density of 2.5×10^4 cells/well, and differentiated at 37° C. and 5% CO2 for 72 hours.
Prior to the experiment, the LPS inhibitor polymyxin B was diluted in RPMI at a concentration of 1-100 μg/ml, and incubated at 37° C. for 1 hour. […] The results were calculated from a standard curve of TNF-α.

[3] = system: TLR4/MD-2 receptor activation by LPS; experiment: NF-κB firefly/Renilla luciferase reporter assay in HEK293/hTLR4A-MD2-CD14 cells; type: cell-based, human; conditions: HEK293/hTLR4A-MD2-CD14, 10 ng/ml LPS, 6 hours
Description: In order to monitor activation of TLR4-MD-2 receptor by LPS, an HEK293/hTLR4A-MD2-CD14 cell line (Invivogen) stably expressing TLR4 and MD2, CD14 genes, prepared by introduction of the genes into HEK293 cell, was used. The HEK293/hTLR4A-MD2-CD14 cell line was subcultured in an RPMI medium (Invitrogen) supplemented with 10% Fetal Bovine Serum (FBS) in an incubator at 37° C. and 5% CO2, and then used for the experiment.
In the present invention, the LPS inhibitor, polymyxin B (Invivogen) and the LPS antagonist, LPS-RS (Invivogen) were diluted in RPMI media at a concentration of 0.01-100 μg/ml, and reacted with 10 ng/ml of LPS at 37° C. for 1 hour. […]
First, the media were removed from the 24-well plate, and the plate was washed with a PBS buffer solution twice, and then 200 μl of passive lysis buffer (PLB) was added to each well for cell lysis. After 30 minutes, 20 μl of cell lysate was transferred to a new 96 well-plate, and then 100 μl of LAR II reagent containing a substrate of firefly luciferase was added to measure luminescence using a VICTOR X Multilabel Plate Reader (PerkinElmer) for 0.5 seconds. After measurement of firefly luciferase luminescence, 100 μl of STOP & GLO reagent containing a substrate of Renilla luciferase was added to measure Renilla luciferase luminescence for 0.5 second. […]

| Substance | Kd [1] [nM] | inhibitory effect on LPS signal transduction (TNF-α secretion) [2] | inhibitory effect on LPS signal transduction (relative firefly luciferase activity) [3] |
| --- | --- | --- | --- |
| MD-2: Myeloid differentiation protein-2, also called lymphocyte antigen 96, a glycoprotein that binds LPS | 65 | weak inhibitory effect |  |
| TLR4/MD-2 complex: complex of Toll-like receptor 4 with MD-2 | 3 |  |  |
| polymyxin B |  | reduction in TNF-α secretion; also recorded: reduction in LPS signal transduction | relatively reduced luciferase activity; also recorded: relative reduction of firefly luciferase activity |
| sTLR4: soluble extracellular domain of cell membrane receptor TLR4 |  | no LPS blocking activity | no LPS blocking activity |
